Measurements as given in ChEMBL document CHEMBL1124125, “6-(Alkylamino)-3-aryl-1,2,4-triazolo[3,4-a]phthalazines. A new class of benzodiazepine receptor ligands” (J Med Chem, 1988).

What was measured:
[1] = target: GABA-A receptor; anion channel; test: Inhibition of [3H]diazepam binding to GABA-A central benzodiazepine receptor of rat brain homogenate
Mus musculus [2] = test: Dose that prevented tonic extensor seizures and death in 50% of the mice.(ip); format: functional
[3] = Lethal dose when given intraperitoneally in mice; format: toxicity, organism-based; conditions: mouse, in vivo, ip
Mus musculus [4] = test: Inhibition of Anti-pentylenetetrazole-induced convulsions in mice following i.p. administration.; format: functional; conditions: ip
[5] = target: T1, GABA-A receptor; anion channel (Rattus norvegicus) (UniProt O09028+P15431+P18506+P18508+P19969+P20236+P23574+P23576+P28471+P28473+P30191+P62813+P63079+P63138+Q91ZM7+Q9ES14); test: GABA ratio (IC50/IC50 in the presence of 10e-4 GABA).; format: protein-complex assay
Rattus norvegicus [6] = test: Minimal effective dose (MED, ip) that significantly increased the number of shocks (anticonflict); format: functional; conditions: read-out: MED
Rattus norvegicus [7] = test: Activity was measured by rotarod test by peroral administration in rat; format: functional; conditions: po
Rattus norvegicus [8] = test: Conditioned Avoidance response activity (CR2) at 10 mg/kg (i.p.) (No. of rats with blocked response/No. of treated rats); format: functional; conditions: route intraperitoneal
Mus musculus [9] = test: Anticonvulsant activity when lethal dose of strychnine given subcutaneously in mouse; conditions: sc
Mus musculus [10] = test: Activity was measured by rotarod test by intraperitoneal administration in mouse.; format: functional; conditions: ip
Mus musculus [11] = species on record: Mus musculus; test: Anticonvulsant activity when maximal electroshock is induced in mouse; format: functional
Mus musculus [12] = test: Antagonism of Diazepam muscle relaxant effect by compound (3 mg/kg, ip) was measured by the fallen/treated mice.; format: functional
Rattus norvegicus [13] = test: Minimal effective dose (MED) that significantly increased the number of shocks.(ip); conditions: read-out: MED
Mus musculus [14] = test: Anticonvulsant activity when bicuculline given subcutaneously in mouse; format: functional; conditions: sc
[15] = target: T1, GABA-A receptor; anion channel (Rattus norvegicus); test: Relative inhibition of [3H]diazepam binding to GABA-A receptor of rat forebrain in the presence and absence of GABA(10e-4M)
Mus musculus [16] = test: Antagonism of Diazepam muscle relaxant effect by compound (60 mg/kg, ip) was measured as the ratio of fallen/treated mice.; format: functional
Mus musculus [17] = test: Antagonism of Diazepam muscle relaxant effect by compound (10 mg/kg, ip) was measured as the ratio of fallen/treated mice.; format: functional
Mus musculus [18] = test: Antagonism of Diazepam muscle relaxant effect by compound (30 mg/kg, ip) was measured as the ratio of fallen/treated mice.; format: functional

COCCN(CCOC)c1nn2c(-c3ccc(OC)c(C)c3)nnc2c2ccccc12
Ki [1]: 1820 nM | ED50 (Mus musculus [2]): > 100 mg/kg | LD50 [3]: 400 mg/kg

COCCN(CCOC)c1nn2c(-c3ccc(C)cc3)nnc2c2ccccc12
ED50 (Mus musculus [4]): 20.4 mg/kg | Ratio [5]: 1.9 | minimal effective dose (Rattus norvegicus [6]): 10 mg/kg | Ki [1]: 44 nM | LD50 [3]: 400 mg/kg

O=[N+]([O-])c1cc(-c2nnc3c4ccccc4c(N4CCCC4)nn23)ccc1Cl
Ki [1]: 908 nM | ED50 (Mus musculus [2]): > 50 mg/kg | LD50 [3]: 200 mg/kg

CCOc1cc(OCC)c(-c2nnc3c4ccccc4c(N4CCCC4)nn23)cc1OCC
Ki [1]: > 3000 nM | ED50 (Mus musculus [2]): > 50 mg/kg | LD50 [3]: 300 mg/kg

COc1cc(OC)c(-c2nnc3c4ccccc4c(N4CCCC4)nn23)cc1OC
Ki [1]: 1930 nM | ED50 (Mus musculus [2]): > 50 mg/kg | LD50 [3]: 300 mg/kg

CN1CCN(c2nn3c(-c4ccccc4)nnc3c3ccccc23)CC1
Ratio [5]: 0.9 | Ki [1]: 37.7 nM | ED50 (Mus musculus [2]): > 50 mg/kg | LD50 [3]: 300 mg/kg

CN1C(=O)CN=C(c2ccccc2)c2cc(Cl)ccc21 [DIAZEPAM]
ED50 (Rattus norvegicus [7]): 15 mg/kg | CR2 (Rattus norvegicus [8]): 5 block/treat | ED50 (Mus musculus [9]): 3 mg/kg | ED50 (Mus musculus [10]): 1 mg/kg | minimal effective dose (Rattus norvegicus [6]): 0.25 mg/kg | ED50 (Mus musculus [11]): 14.2 mg/kg | Fallen/treated (Mus musculus [12]): 8 | minimal effective dose (Rattus norvegicus [13]): 3 mg/kg | ED50 (Mus musculus [14]): 1.4 mg/kg

Cc1ccc(-c2nnc3c4ccccc4c(N4CCCC4)nn23)cc1C
Ki [1]: 1970 nM | ED50 (Mus musculus [2]): > 50 mg/kg | LD50 [3]: 300 mg/kg

CC(C)(C)Nc1nn2c(-c3ccccc3)nnc2c2ccccc12
ED50 (Mus musculus [4]): ≥ 50 mg/kg | Ki [1]: 565 nM | LD50 [3]: 300 mg/kg

NC(=O)c1ccc(-c2nnc3c4ccccc4c(N4CCCC4)nn23)cc1
ED50 (Mus musculus [4]): ≥ 50 mg/kg | Ratio [5]: 1.1 | Ki [1]: 113 nM | LD50 [3]: 200 mg/kg

COCCN(CCOC)c1nn2c(-c3cccc(Cl)c3)nnc2c2ccccc12
ED50 (Mus musculus [4]): ≥ 100 mg/kg | Ki [1]: 307 nM | LD50 [3]: 600 mg/kg

N#Cc1ccc(-c2nnc3c4ccccc4c(N4CCCC4)nn23)cc1
ED50 (Mus musculus [4]): ≥ 100 mg/kg | Ratio [5]: 1.1 | Ki [1]: 102 nM | LD50 [3]: 600 mg/kg

COCCN(CCOC)c1nn2c(-c3ccccc3)nnc2c2ccccc12
minimal effective dose (Rattus norvegicus [6]): 15 mg/kg | Ratio [15]: 1.6 | Ki [1]: 66 nM | ED50 (Mus musculus [2]): 34.2 mg/kg | LD50 [3]: 200 mg/kg

Brc1ccccc1-c1nnc2c3ccccc3c(N3CCCC3)nn12
Ki [1]: 760 nM | ED50 (Mus musculus [2]): > 100 mg/kg | LD50 [3]: 600 mg/kg

COc1ccc(-c2nnc3c4ccccc4c(N4CCCC4)nn23)cc1
Ratio [5]: 1.1 | Fallen/treated (Mus musculus [16]): 5 | Ki [1]: 3.9 nM | ED50 (Mus musculus [2]): > 100 mg/kg | LD50 [3]: 600 mg/kg

CCCCNc1nn2c(-c3ccccc3)nnc2c2ccccc12
ED50 (Mus musculus [4]): ≥ 100 mg/kg | Ki [1]: 243 nM | LD50 [3]: 600 mg/kg

COCCN(CCOC)c1nn2c(-c3ccc(O)cc3)nnc2c2ccccc12
Ratio [5]: 1 | Ki [1]: 4.1 nM | ED50 (Mus musculus [2]): > 50 mg/kg | LD50 [3]: 600 mg/kg

c1ccc(-c2nnc3c4ccccc4c(N4CCCC4)nn23)cc1
Fallen/treated (Mus musculus [17]): 4 | Ratio [5]: 1.1 | Ki [1]: 15.6 nM | ED50 (Mus musculus [2]): > 75 mg/kg | LD50 [3]: 400 mg/kg | Fallen/treated (Mus musculus [18]): 2

COCCNc1nn2c(-c3ccc(OC)cc3)nnc2c2ccccc12
ED50 (Mus musculus [4]): ≥ 50 mg/kg | Ratio [5]: 1.1 | Ki [1]: 5.4 nM | LD50 [3]: 200 mg/kg

c1ccc(-c2nnc3c4ccccc4c(N4CCCCC4)nn23)cc1
ED50 (Mus musculus [4]): ≥ 100 mg/kg | Ratio [5]: 1 | Ki [1]: 16 nM | LD50 [3]: 600 mg/kg

COCCN(CCOC)c1nn2c(-c3cccc(C)c3)nnc2c2ccccc12
Ki [1]: 181 nM | ED50 (Mus musculus [2]): > 100 mg/kg | LD50 [3]: 300 mg/kg

COc1ccc(-c2nnc3c4ccccc4c(N4CCCC4)nn23)cc1OC
Ki [1]: > 3000 nM | ED50 (Mus musculus [2]): > 100 mg/kg | LD50 [3]: 500 mg/kg

Nc1nn2c(-c3ccccc3)nnc2c2ccccc12
ED50 (Mus musculus [4]): ≥ 100 mg/kg | Ki [1]: 243 nM | LD50 [3]: 600 mg/kg

CCN(CC)c1nn2c(-c3ccccc3)nnc2c2ccccc12
Ratio [15]: 0.9 | Ki [1]: 41 nM | ED50 (Mus musculus [2]): > 100 mg/kg | LD50 [3]: 600 mg/kg
